In the NIST ThermoML archive (doi:10.1016/j.jct.2017.03.006):

How the values were obtained:
[1] = Liquid; for viscosity: Concentric cylinders viscometry; for mass density: Vibrating tube method
[2] = molar heat capacity at constant pressure; conditions: Liquid, Flow calorimetry

Cc1ccc(C)c(C)c1 [1,2,4-trimethylbenzene]
Conditions | mass density [kg/m3] | molar heat capacity at constant pressure [J/K/mol] | viscosity [mPa·s]
[1], 313.15 K, 100 kPa | 859 | – | 0.692
[1], 313.15 K, 1000 kPa | 859.7 | – | –
[1], 313.15 K, 2000 kPa | 860.4 | – | –
[1], 313.15 K, 5000 kPa | 862.6 | – | –
[1], 313.15 K, 10000 kPa | 866 | – | –
[1], 313.15 K, 15000 kPa | 869.3 | – | –
[1], 313.15 K, 20000 kPa | 872.6 | – | –
[1], 313.15 K, 30000 kPa | 878.7 | – | –
[1], 313.15 K, 40000 kPa | 884.5 | – | –
[1], 313.15 K, 50000 kPa | 889.9 | – | –
[1], 313.15 K, 60000 kPa | 895 | – | –
[1], 313.15 K, 70000 kPa | 899.9 | – | –
[1], 313.15 K, 80000 kPa | 904.6 | – | –
[1], 313.15 K, 90000 kPa | 909 | – | –
[1], 313.15 K, 100000 kPa | 913.3 | – | –
[1], 313.15 K, 110000 kPa | 917.4 | – | –
[1], 313.15 K, 120000 kPa | 921.4 | – | –
[1], 313.15 K, 130000 kPa | 925.2 | – | –
[1], 313.15 K, 140000 kPa | 928.9 | – | –
[1], 323.15 K, 100 kPa | 851.3 | – | 0.62
[1], 323.15 K, 1000 kPa | 852 | – | –
[1], 323.15 K, 2000 kPa | 852.7 | – | –
[1], 323.15 K, 5000 kPa | 855 | – | –
[1], 323.15 K, 10000 kPa | 858.6 | – | –
[1], 323.15 K, 15000 kPa | 862.1 | – | –
[1], 323.15 K, 20000 kPa | 865.5 | – | –
[1], 323.15 K, 30000 kPa | 871.9 | – | –
[1], 323.15 K, 40000 kPa | 877.9 | – | –
[1], 323.15 K, 50000 kPa | 883.5 | – | –
[1], 323.15 K, 60000 kPa | 888.9 | – | –
[1], 323.15 K, 70000 kPa | 894 | – | –
[1], 323.15 K, 80000 kPa | 898.8 | – | –
[1], 323.15 K, 90000 kPa | 903.4 | – | –
[1], 323.15 K, 100000 kPa | 907.8 | – | –
[1], 323.15 K, 110000 kPa | 912 | – | –
[1], 323.15 K, 120000 kPa | 916.1 | – | –
[1], 323.15 K, 130000 kPa | 920 | – | –
[1], 323.15 K, 140000 kPa | 923.8 | – | –
[1], 333.15 K, 100 kPa | 843.6 | – | 0.562
[1], 333.15 K, 1000 kPa | 844.4 | – | –
[1], 333.15 K, 2000 kPa | 845.2 | – | –
[1], 333.15 K, 5000 kPa | 847.6 | – | –
[1], 333.15 K, 10000 kPa | 851.4 | – | –
[1], 333.15 K, 15000 kPa | 855.1 | – | –
[1], 333.15 K, 20000 kPa | 858.6 | – | –
[1], 333.15 K, 30000 kPa | 865.3 | – | –
[1], 333.15 K, 40000 kPa | 871.6 | – | –
[1], 333.15 K, 50000 kPa | 877.4 | – | –
[1], 333.15 K, 60000 kPa | 883 | – | –
[1], 333.15 K, 70000 kPa | 888.2 | – | –
[1], 333.15 K, 80000 kPa | 893.2 | – | –
[1], 333.15 K, 90000 kPa | 898 | – | –
[1], 333.15 K, 100000 kPa | 902.5 | – | –
[1], 333.15 K, 110000 kPa | 906.9 | – | –
[1], 333.15 K, 120000 kPa | 911.1 | – | –
[1], 333.15 K, 130000 kPa | 915.1 | – | –
[1], 333.15 K, 140000 kPa | 919 | – | –
[2], 293.15 K, 100 kPa | – | 216.2 | –
[2], 293.15 K, 5000 kPa | – | 215 | –
[2], 293.15 K, 10000 kPa | – | 213.3 | –
[2], 293.15 K, 15000 kPa | – | 212.5 | –
[2], 293.15 K, 20000 kPa | – | 210.8 | –
[2], 293.15 K, 25000 kPa | – | 209.8 | –
[2], 313.15 K, 100 kPa | – | 222.5 | –
[2], 313.15 K, 5000 kPa | – | 221.2 | –
[2], 313.15 K, 10000 kPa | – | 219.6 | –
[2], 313.15 K, 15000 kPa | – | 218.5 | –
[2], 313.15 K, 20000 kPa | – | 217.7 | –
[2], 313.15 K, 25000 kPa | – | 217.1 | –
[2], 333.15 K, 100 kPa | – | 229.2 | –
[2], 333.15 K, 5000 kPa | – | 227.9 | –
[2], 333.15 K, 10000 kPa | – | 227.1 | –
[2], 333.15 K, 15000 kPa | – | 225.9 | –
[2], 333.15 K, 20000 kPa | – | 224.8 | –
[2], 333.15 K, 25000 kPa | – | 223.5 | –
